Experimental data from patent EP4624472A1, “DEGRADER INCLUDING NOVEL C-MET PROTEIN LIGAND AND PHARMACEUTICAL COMPOSITION INCLUDING SAME” (Innocure Therapeutics, Inc., priority 2022, dated 2024).

Assays:
SNU-638 = test: In vitro cell viability assay (cancer cell anti-proliferative activity), SNU-638; assay type: cell-based, human; settings: Homo sapiens; SNU-638 cells, treated 72 hours; read-out: In vitro cell viability assay (nM) SNU-638 IC50
Method: (§1) The c-MET overexpressing human gastric cancer cell lines MKN45 and SNU638 were cultured in RPMI medium with 10% fetal bovine serum, penicillin (100 U/ml), and streptomycin ([…]), and the c-MET exon 14 skipping mutant human gastric cancer cell line Hs746T was cultured in DMEM media. The c-MET overexpressing human lung cancer cell line EBC-1 was cultured in MEM media with the addition of 10% fetal bovine serum, penicillin (100U/ml), and streptomycin ([…]). The normal cell line WI-38 derived from human lung tissue was cultured in EMEM medium with the addition of 10% fetal bovine serum, penicillin (100U/ml), and streptomycin ([…]).
(§2) The compound synthesized in accordance with the present invention was prepared with a raw material solution of 10 mM dissolved in DMSO (dimethyl sulfoxide), and was sequentially diluted and processed.
(§3) In order to evaluate the inhibitory activity on cell growth, cells were dispensed in a 96-well plate at a concentration of 5,000 cells/well and then treated with the compound of the present invention prepared at various concentrations for 72 hours. The absorbance measurement at 450 nm was calculated using the GraphicPad Prism 8.0 software. The IC50 value (concentration of the compound achieving 50% cytostatic inhibition) is the average value of the measured results. […]

EBC-1 = test: In vitro cell viability assay (cancer cell anti-proliferative activity), EBC-1; assay type: cell-based, human; settings: Homo sapiens; EBC-1 cells, treated 72 hours; read-out: In vitro cell viability assay (nM) EBC-1 IC50
Method: as §1, §2, §3

Hs746T = test: In vitro cell viability assay (cancer cell anti-proliferative activity), Hs746T; assay type: cell-based; settings: Homo sapiens; Hs746T cells, treated 72 hours
Method: as §1, §2, §3

c-MET [1] = target: T1, c-MET (Homo sapiens, UniProt P08581, DEL964-1010); test: c-MET protein degradation (Simple Western) in Hs746T cells; assay type: cell-based; settings: Hs746T (c-MET exon 14 skipping mutant), gastric cancer cell line treated 24 hours; c-MET expression normalized to GAPDH, 0.1% DMSO = 100%; read-out: In vitro cell viability assay (nM) Hs746T DC50
T1 construct: To evaluate the degradation efficacy of the compounds of the present invention for c-MET expressed in cells; endogenous in cells; host or cells: Hs746T (human gastric cancer cell line)
Method: as §1, §2
(§4) To evaluate the degradation efficacy of the compounds of the present invention for c-MET expressed in cells, cells were dispensed in a 12-well plate at a concentration of 2 × 10^5 cells/well, and then gastric cancer cell lines were treated with samples for 24 hours and lung cancer cell lines were treated for 48 hours.
(§5) To perform a western blotting assay to confirm protein expression, cells treated with a compound treated with 40 µL of RIPA buffer with a protease inhibitor for 30 minutes, collected cell lysate using a scraper on ice, and centrifuged at 4°C 15,000 rpm for 30 min to obtain a protein-containing supernatant.
(§6) Protein expression was then measured using the Simple Western Automated Western Blot System Abby instrument using 3 µg of protein for each sample. SDS and heat-induced denaturation proteins were separated by molecular weight, attached to the capillary, reacted with anti-c-MET or anti-GAPDH antibodies, which are primary antibodies, and then reacted with HRP-conjugated secondary antibodies, and analyzed the protein expression signal with compass software.
(§7) Protein expression was normalized based on the expression value of GAPDH, and the protein expression amount in each sample was measured as a percentage (%) based on 100% of samples treated with 0.1% DMSO carrier, and DC50 (concentration of a compound where 50% protein inhibition is achieved) was calculated from the change in protein expression amount due to compound treatment.

c-MET [2] = target: T2, c-MET (Homo sapiens, UniProt P08581); test: c-MET protein degradation (Simple Western) in SNU-638 cells; assay type: cell-based; design: To evaluate the degradation efficacy of the compounds of the present invention for c-MET expressed in cells; endogenous in cells; settings: SNU-638, gastric cancer cell line treated 24 hours; c-MET expression normalized to GAPDH, 0.1% DMSO = 100%; read-out: In vitro cell viability assay (nM) SNU-638 DC50
Method: as §1, §2, §4, §5, §6, §7

c-MET [3] = target: T2, c-MET; test: c-MET protein degradation (Simple Western) in EBC-1 cells; assay type: cell-based; design: To evaluate the degradation efficacy of the compounds of the present invention for c-MET expressed in cells; endogenous in cells; host or cells: EBC-1 (human lung cancer cell line); settings: EBC-1, lung cancer cell line treated 48 hours; c-MET expression normalized to GAPDH, 0.1% DMSO = 100%; read-out: In vitro cell viability assay (nM) EBC-1 DC50
Method: as §1, §2, §4, §5, §6, §7

T1 sequence (P08581 with tags, fused parts or gaps DEL964-1010 limits assumed): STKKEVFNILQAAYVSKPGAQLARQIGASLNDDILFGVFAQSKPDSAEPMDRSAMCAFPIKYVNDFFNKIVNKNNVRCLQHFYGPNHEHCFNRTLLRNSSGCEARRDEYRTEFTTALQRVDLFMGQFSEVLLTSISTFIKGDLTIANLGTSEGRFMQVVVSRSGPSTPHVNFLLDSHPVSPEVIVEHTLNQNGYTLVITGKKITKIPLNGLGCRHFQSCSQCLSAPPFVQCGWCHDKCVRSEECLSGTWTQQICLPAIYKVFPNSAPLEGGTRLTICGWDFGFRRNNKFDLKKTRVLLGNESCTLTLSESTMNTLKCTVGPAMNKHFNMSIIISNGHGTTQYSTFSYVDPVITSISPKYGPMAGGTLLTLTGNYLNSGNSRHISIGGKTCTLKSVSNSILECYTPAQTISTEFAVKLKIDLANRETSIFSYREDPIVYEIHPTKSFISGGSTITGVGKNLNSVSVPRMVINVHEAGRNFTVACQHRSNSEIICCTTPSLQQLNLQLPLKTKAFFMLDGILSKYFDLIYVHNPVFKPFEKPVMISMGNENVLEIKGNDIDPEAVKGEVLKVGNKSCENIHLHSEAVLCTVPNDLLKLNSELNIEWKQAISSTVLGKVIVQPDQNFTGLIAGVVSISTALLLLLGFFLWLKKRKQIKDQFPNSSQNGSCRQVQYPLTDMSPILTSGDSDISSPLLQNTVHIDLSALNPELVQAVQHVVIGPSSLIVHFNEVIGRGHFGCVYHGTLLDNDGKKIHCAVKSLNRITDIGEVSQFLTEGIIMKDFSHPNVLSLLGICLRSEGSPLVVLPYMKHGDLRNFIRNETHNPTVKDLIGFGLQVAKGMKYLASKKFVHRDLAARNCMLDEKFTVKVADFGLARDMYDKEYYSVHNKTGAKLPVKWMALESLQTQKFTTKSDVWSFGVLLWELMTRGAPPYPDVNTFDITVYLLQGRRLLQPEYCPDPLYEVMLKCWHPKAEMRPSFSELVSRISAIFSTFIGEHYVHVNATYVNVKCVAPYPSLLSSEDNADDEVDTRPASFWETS
T1 sequence (P08581 25-307 partner limits assumed): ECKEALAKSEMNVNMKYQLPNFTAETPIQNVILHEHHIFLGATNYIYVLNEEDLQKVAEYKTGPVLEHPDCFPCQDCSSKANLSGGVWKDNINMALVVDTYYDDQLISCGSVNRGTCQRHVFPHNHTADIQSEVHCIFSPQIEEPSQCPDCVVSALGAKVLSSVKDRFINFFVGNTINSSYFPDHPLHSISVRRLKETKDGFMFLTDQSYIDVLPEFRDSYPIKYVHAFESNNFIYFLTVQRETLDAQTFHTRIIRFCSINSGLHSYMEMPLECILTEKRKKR
T2 sequence (P08581 25-1390): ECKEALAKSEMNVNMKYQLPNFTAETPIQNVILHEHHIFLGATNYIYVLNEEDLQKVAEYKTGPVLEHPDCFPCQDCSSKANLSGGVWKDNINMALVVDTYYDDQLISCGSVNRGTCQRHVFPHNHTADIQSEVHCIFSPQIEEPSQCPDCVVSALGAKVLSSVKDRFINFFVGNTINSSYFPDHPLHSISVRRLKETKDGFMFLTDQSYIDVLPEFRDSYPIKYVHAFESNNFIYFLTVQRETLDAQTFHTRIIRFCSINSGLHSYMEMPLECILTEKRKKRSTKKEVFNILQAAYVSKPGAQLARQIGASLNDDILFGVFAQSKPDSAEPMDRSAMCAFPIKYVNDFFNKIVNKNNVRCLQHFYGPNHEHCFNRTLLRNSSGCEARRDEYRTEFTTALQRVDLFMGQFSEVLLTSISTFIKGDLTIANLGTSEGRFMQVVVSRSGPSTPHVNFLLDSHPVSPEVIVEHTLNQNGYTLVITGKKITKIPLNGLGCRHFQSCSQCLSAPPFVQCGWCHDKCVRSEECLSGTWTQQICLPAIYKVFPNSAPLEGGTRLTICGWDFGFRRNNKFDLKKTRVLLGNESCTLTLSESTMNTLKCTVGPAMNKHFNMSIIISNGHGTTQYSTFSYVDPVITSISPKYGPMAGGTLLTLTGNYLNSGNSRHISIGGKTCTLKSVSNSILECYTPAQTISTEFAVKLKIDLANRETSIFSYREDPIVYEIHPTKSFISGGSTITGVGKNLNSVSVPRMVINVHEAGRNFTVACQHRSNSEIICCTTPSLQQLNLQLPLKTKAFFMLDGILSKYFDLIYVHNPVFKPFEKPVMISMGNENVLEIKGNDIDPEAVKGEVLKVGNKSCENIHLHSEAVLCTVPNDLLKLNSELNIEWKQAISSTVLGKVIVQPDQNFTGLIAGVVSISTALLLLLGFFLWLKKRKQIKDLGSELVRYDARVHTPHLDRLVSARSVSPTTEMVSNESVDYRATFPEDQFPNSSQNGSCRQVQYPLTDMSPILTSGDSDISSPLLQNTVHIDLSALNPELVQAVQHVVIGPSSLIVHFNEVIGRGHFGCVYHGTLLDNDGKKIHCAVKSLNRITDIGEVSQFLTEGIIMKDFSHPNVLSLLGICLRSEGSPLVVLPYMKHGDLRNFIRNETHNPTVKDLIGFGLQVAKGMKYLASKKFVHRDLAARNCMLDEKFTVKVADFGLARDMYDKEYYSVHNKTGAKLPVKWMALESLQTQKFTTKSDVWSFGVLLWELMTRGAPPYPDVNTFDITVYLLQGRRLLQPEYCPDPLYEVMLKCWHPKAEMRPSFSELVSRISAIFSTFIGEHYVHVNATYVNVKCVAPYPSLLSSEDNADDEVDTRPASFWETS

Compound	IC50 (SNU-638) [nM]	IC50 (EBC-1) [nM]	IC50 (Hs746T) [nM]	DC50 (c-MET [1]) [nM]	DC50 (c-MET [2]) [nM]	DC50 (c-MET [3]) [nM]
Cn1cc(-c2cnc3c(nnn3C[C@@H]3CN(c4ncc(N5CC(CN6CCN(c7ccc8c(=O)n(C9CCC(=O)NC9=O)ncc8c7)CC6)C5)cn4)CCO3)n2)cn1 (stereo partly drawn) [Example D-1, 3-(6-(4-((1-(2-((S)-2-((5-(1-methyl-1H-pyrazole-4-yl)-1H-[1,2,3]triazolo[4,5-b]pyrazine-1-yl)methyl)morpholine-5-il)azetidin-3-il)methyl)piperazine-1-il)piperazine-1-il)1-oxopthalazine-2(1H)-day)piperidine-2,6-dione]	≤ 100	≤ 100	≤ 100	≤ 100	> 1000	≤ 100
Cc1nn(C2CCC(=O)NC2=O)c(=O)c2ccc(N3CCN(CC4CCN(CC5CN(c6cnc(N7CCO[C@H](Cn8nnc9nc(-c%10cnn(C)c%10)cnc98)C7)nc6)C5)CC4)CC3)cc12 (stereo partly drawn) [Example D-4]	≤ 100	≤ 100	≤ 100	≤ 100	≤ 1000	≤ 100
Cn1cc(-c2cnc3c(nnn3C[C@@H]3CN(c4ncc(N5CC(CN6CCN(CC7CCN(c8ccc(NC9CCC(=O)NC9=O)cc8F)CC7)CC6)C5)cn4)CCO3)n2)cn1 (stereo partly drawn) [Example D-5]	≤ 100	≤ 100	> 1000	> 1000	> 1000	> 1000
Cc1nn(C2CCC(=O)NC2=O)c(=O)c2ccc(N3CCO[C@@H](COc4cnc(-c5cccc(Cn6nc(-c7cccc(C#N)c7)ccc6=O)c5)nc4)C3)cc12 (stereo partly drawn) [Example E-1]	≤ 100	≤ 100	≤ 100	≤ 100	> 1000	≤ 100
N#Cc1cccc(-c2ccc(=O)n(Cc3cccc(-c4ncc(OC[C@H]5CN(c6ccc7c(=O)n(C8CCC(=O)NC8=O)ncc7c6)CCO5)cn4)c3)n2)c1 (stereo partly drawn) [Example E-2, 3-(1-(3-(5-(((2R)-4-(2-(2,6-dioxopiperidin-3-yl)-1-oxo-1,2-dihydrophthalazine-6-yl)morpholine-2-yl)methoxy)pyrimidin-2-yl)benzyl)6-oxo-1,6-dihydropyridazine-3-il)benzonitrile]		≤ 100	≤ 100	≤ 100		≤ 100
N#Cc1cccc(-c2ccc(=O)n(Cc3cccc(-c4ncc(OCCN5CCN(c6ccc7c(=O)n(C8CCC(=O)NC8=O)ncc7c6)CC5)cn4)c3)n2)c1 (stereo not drawn) [Example E-4]	≤ 100	≤ 100	≤ 100	≤ 100	> 1000	≤ 100
Cc1nn(C2CCC(=O)NC2=O)c(=O)c2ccc(N3CCN(CCOc4cnc(-c5cccc(Cn6nc(-c7cccc(C#N)c7)ccc6=O)c5)nc4)CC3)cc12 (stereo not drawn) [Example E-5]	≤ 100	≤ 100	≤ 100	≤ 100	≤ 100	≤ 100
N#Cc1cccc(-c2ccc(=O)n(Cc3cccc(-c4ncc(OCCN5CCN(c6ccc(NC7CCC(=O)NC7=O)cc6F)CC5)cn4)c3)n2)c1 (stereo not drawn) [Example E-6, 3-(1-(3-(5-(2-(4-(4-((2,6-dioxopiperidin-3-yl)amino)2-fluorophenyl)piperazine-1-yl)ethoxy)pyrimidine-2-yl)benzyl)6-oxo-1,6-dihydropyridazine-3-yl)benzonitrile]	≤ 100	≤ 100			> 1000	> 1000
N#Cc1cccc(-c2ccc(=O)n(Cc3cccc(-c4ncc(N5CCN(CC6CN(c7ccc(NC8CCC(=O)NC8=O)cc7F)C6)CC5)cn4)c3)n2)c1 (stereo not drawn) [Example E-7]	≤ 100	≤ 100			≤ 100	≤ 100
N#Cc1cccc(-c2ccc(=O)n(Cc3cccc(-c4ncc(N5CCN(CC6CCN(c7ccc(NC8CCC(=O)NC8=O)cc7F)CC6)CC5)cn4)c3)n2)c1 (stereo not drawn) [Example E-8]	≤ 100	≤ 100	≤ 100	≤ 100	> 1000	≤ 100
